Measured values taken from article PMC9399588, “Effect of fluconazole on the pharmacokinetics of a single dose of fedratinib in healthy adults” (Cancer Chemotherapy and Pharmacology, 2022).
Values joined by “and” are separate entries in the source; they are usually repeats but may differ in a detail not shown here. Equal entries are not always repeated. Where two headings read alike, the source gives them in different places.

Columns and labels:
[1] = Safety and tolerability assessment (adverse event monitoring) in the Phase 1 study; assay type: in vivo, human
Procedure: Safety assessments included adverse event (AE) monitoring, review of concomitant medications and procedures, physical examinations, vital signs measurements, 12-lead ECGs, and clinical laboratory safety tests. All AEs were recorded from the time of informed consent until study completion, and up to 30 days after the last dose of fluconazole if reported to the investigator.

[2] = Phase 1 fixed-sequence drug-drug interaction study: plasma pharmacokinetics of single-dose fedratinib with and without fluconazole; assay type: in vivo, human; details: for Vd/F: read-out: Vz/F, geometric mean (geometric CV%); for half-life: read-out: t1/2 (terminal elimination), geometric mean (geometric CV%) (converted)
Description: This was an open-label Phase 1 study to evaluate the effect of multiple doses of fluconazole on the PK, safety, and tolerability of a single dose of fedratinib in healthy adult participants (NCT04702464). Healthy men and women aged 18–65 years with body mass index (BMI) ≥ 18 and ≤ 33 kg/m^2 at screening were enrolled at one site in the USA. Participants were confirmed to be healthy based on medical history, physical examination, clinical laboratory test results, vital signs, and 12-lead electrocardiogram (ECG) at screening and check-in (day − 1). Aspartate aminotransferase, alanine aminotransferase, and total bilirubin must have been at or below the upper limit of the reference range on or before check-in (day − 1). Other clinical parameters and laboratory results were either within normal range or deemed not clinically significant by the investigator. Women of childbearing potential were required to have a negative pregnancy test result and to use birth control.
This was a non-randomized, fixed-sequence, open-label study consisting of a screening phase, treatment phase (including baseline), and follow-up telephone call (Fig. 1). The fixed-sequence crossover design of this study was selected to remove intersubject variability from comparison between treatments. Healthy participants were chosen to mitigate the potential confounding effects of disease state or other concomitant medications likely to be present in a population of patients with myelofibrosis.
Participants resided at the clinical site from day − 1 to day 27. A single oral dose of fedratinib 100 mg was administered under fasted conditions on day 1. Participants received fluconazole 400 mg on day 10 and fluconazole 200 mg once daily on days 11–23. On day 18, participants received a single oral dose of fedratinib 100 mg, under fasted conditions, with fluconazole 200 mg. No food or beverages (except water) were allowed for at least 4 h after dosing; water was allowed as desired except for 1 h before and 1 h after each dose. Participants received ondansetron 8 mg by mouth approximately 1 h before each fedratinib administration to reduce the potential for fedratinib-related nausea and vomiting, with the option of a subsequent oral dose(s) of ondansetron as necessary. Fluconazole is not expected to have a clinically meaningful impact on the PK of ondansetron as ondansetron is metabolized by multiple enzymes including CYP1A1/2, CYP3A4, and CYP2D6 [28]. […] Participants were discharged from the clinical site on day 27 and received a follow-up telephone call 4 days (± 2 days) after discharge. In the event that participants discontinued the study for any reason, an early termination (ET) visit was performed. Only safety assessments scheduled for the day of discharge were performed at the ET visit. Participants who discontinued the study also received a follow-up telephone call 4 days (± 2 days) after discharge. Participants who discontinued the study due to inclement weather returned to the clinic to complete the ET visit at a later date.
On days 1 and 18, blood samples for determination of fedratinib plasma concentrations were collected before each dose and 0.5, 1, 1.5, 2, 3, 4, 6, 8, 12, 24, 48, 72, 120, 168, and 216 h post-dose. Plasma fedratinib concentrations were measured using a validated liquid chromatography–tandem mass spectrometry assay with a lower limit of quantification (LLOQ) of 1.00 ng/mL [19].
Plasma PK parameters were calculated using noncompartmental methods. The PK parameters determined for fedratinib were maximum observed plasma concentration (Cmax), time to Cmax (Tmax), AUC from time 0 to the time of the last quantifiable concentration (AUC0–t), AUC from time 0 to infinity (AUC0–∞), terminal elimination t1/2, apparent total plasma clearance (CL/F), and apparent total volume of distribution during the terminal phase (Vz/F). […]

[3] = system: CYP3A4; design: method as in PMID 32886148; details: 0.1 μM fedratinib, different hepatocyte preparations; cited from earlier work
[4] = system: CYP2C19 (liver); design: method as in PMID 32886148; details: after first dose of 400 mg once-daily fedratinib, healthy participants; cited from earlier work
[5] = system: CYP3A4 (liver); design: method as in PMID 32886148; details: after first dose of 400 mg once-daily fedratinib, healthy participants; cited from earlier work
[6] = design: method as in PMID 32748109; details: healthy adult men, oral dose of [14C]-fedratinib 200 mg; cited from earlier work
[7] = cited from earlier work
[8] = design: method as in PMID 32886148; details: PBPK simulations; cited from earlier work
[9] = design: method as in PMID 32248324; details: cited from earlier work
[10] = design: method as in PMID 34019108; details: healthy adults; cited from earlier work
[11] = system: myelofibrosis; design: method as in PMID 34331348; details: double-blind Phase 3, NCT01437787; cited from earlier work
[12] = in vivo; cited from earlier work
[13] = design: method as in PMID 12867217; details: cited from earlier work
[14] = design: method as in PMID 31324935; details: cited from earlier work
[15] = compared with fedratinib alone, single oral dose 100 mg
[16] = fedratinib 100 mg + fluconazole 200 mg once daily (test) vs fedratinib 100 mg (reference)
[17] = healthy men, single dose fedratinib 300 mg with ketoconazole vs alone

OC(Cn1cncn1)(Cn1cncn1)c1ccc(F)cc1F [fluconazole]
Participants with treatment-emergent adverse events (TEAEs) ([1]; during treatment with fluconazole 200 mg alone, 2 participants): 7.4%

Cc1cnc(Nc2ccc(OCCN3CCCC3)cc2)nc1Nc1cccc(S(=O)(=O)NC(C)(C)C)c1 [fedratinib]
Tmax median difference between fedratinib with fluconazole and fedratinib alone ([2]; Hodges–Lehmann estimate, 90% CI 0.00–1.00, p = 0.156): 0.5 h
AUC(0-inf) ([2]; both sexes, human, plasma, oral, 100 mg fedratinib + 200 mg fluconazole once daily (test), n = 5, read-out: AUC0–∞, geometric mean from ANOVA model): 4100 ng·h/mL
AUC(0-inf) ([2]; both sexes, human, plasma, oral, 100 mg, 100 mg fedratinib (reference), n = 7, read-out: AUC0–∞, geometric mean from ANOVA model): 2410 ng·h/mL
AUC(0-t) ([2]; both sexes, human, plasma, oral, 100 mg fedratinib (reference), n = 16, read-out: AUC0–t, geometric mean from ANOVA model): 1900 ng·h/mL
Cmax ([2]; both sexes, human, plasma, oral, 100 mg fedratinib (reference), n = 16, read-out: Cmax, geometric mean from ANOVA model): 121 ng/mL
Cmax ([2]; both sexes, human, plasma, oral, 100 mg fedratinib + 200 mg fluconazole once daily (test), n = 16, read-out: Cmax, geometric mean from ANOVA model): 146 ng/mL
AUC(0-inf) ([2]; both sexes, human, plasma, oral, fedratinib 100 mg + fluconazole 200 mg once daily, n = 5, read-out: AUC0–∞, geometric mean (geometric CV%)): 4200 ng·h/mL
Vd/F ([2]; both sexes, human, plasma, oral, fedratinib 100 mg + fluconazole 200 mg once daily, n = 5): 3560 L
AUC(0-t) ([2]; both sexes, human, plasma, oral, fedratinib 100 mg + fluconazole 200 mg once daily, n = 16, read-out: AUC0–t, geometric mean (geometric CV%)): 2970 ng·h/mL
half-life ([2]; both sexes, human, plasma, oral, fedratinib 100 mg + fluconazole 200 mg once daily, n = 16): 138 h
AUC(0-inf) ([2]; both sexes, human, plasma, po, 100 mg, fedratinib 100 mg single oral dose alone, n = 7, read-out: AUC0–∞, geometric mean (geometric CV%)): 2360 ng·h/mL
Cmax ([2]; both sexes, human, plasma, fedratinib 100 mg single oral dose + fluconazole 200 mg once daily, healthy adults, n = 16, read-out: Cmax, geometric mean (geometric CV%)): 146 ng/mL
Cmax ([2]; both sexes, human, plasma, fedratinib 100 mg single oral dose alone, fasted, healthy adults, n = 16, read-out: Cmax, geometric mean (geometric CV%)): 121 ng/mL
Vd/F ([2]; both sexes, human, plasma, fedratinib 100 mg single oral dose alone, n = 7): 6500 L
AUC(0-t) ([2]; both sexes, human, plasma, fedratinib 100 mg single oral dose alone, n = 16, read-out: AUC0–t, geometric mean (geometric CV%)): 1900 ng·h/mL
Tmax ([2]; both sexes, human, plasma, fedratinib 100 mg single oral dose alone, n = 16, read-out: Tmax, median (min, max)): 2 h
half-life ([2]; both sexes, human, plasma, fedratinib 100 mg single oral dose alone, n = 16): 125 h
Increase in fedratinib AUC0–t on coadministration with fluconazole [2, 15]: 56%
Increase in fedratinib Cmax on coadministration with fluconazole [2, 15]: 21%
AUC0–t: ratio (%) of geometric LS means, test/reference (90% CI) [2, 16]: 156% and 156 (145, 168) %
Cmax: ratio (%) of geometric LS means, test/reference (90% CI) [2, 16]: 121% and 121 (108, 135) %
AUC0–∞: ratio (%) of geometric LS means, test/reference (90% CI) ([2]; fedratinib 100 mg + fluconazole 200 mg once daily (test, n = 5) vs fedratinib 100 mg (reference, n = 7)): 170 (143, 202) %
CL/F, geometric mean (geometric CV%) ([2]; fedratinib 100 mg + fluconazole 200 mg once daily, n = 5): 23.8 (40.2) L/h
Tmax, median (min, max) ([2]; fedratinib 100 mg + fluconazole 200 mg once daily, n = 16): 2.00 (1.02, 6.00) h
CL/F, geometric mean (geometric CV%) ([2]; fedratinib 100 mg single oral dose alone, n = 7): 42.3 (21.9) L/h
Difference in terminal t1/2 of fedratinib alone vs in combination with fluconazole ([2]; in vivo): no significant difference
Increase in fedratinib exposure by fluconazole (in words) ([2]; observed in this study): less than twofold increase
Increase in systemic exposure to fedratinib on coadministration with fluconazole ([2]; single oral dose, compared with fedratinib alone): up to 56%
Participants with treatment-emergent adverse events (TEAEs) ([1]; during treatment with fedratinib 100 mg alone, 3 participants): 10.3%
Participants with treatment-emergent adverse events (TEAEs) ([1]; during treatment with fedratinib 100 mg plus fluconazole 200 mg, 1 participant): 6.3%
Tolerability of single oral doses ([1]; fedratinib 100 mg with or without fluconazole, healthy adults): well tolerated
CYP3A4 share of the total CYP contribution to metabolism [3]: 0–67%
Mean fraction of metabolism or excretion in relation to systemic clearance [4]: 16%
Mean fraction of metabolism or excretion in relation to systemic clearance [5]: 64%
Share of total circulating drug in plasma accounted for by fedratinib [6]: approximately 80%
Effective t1/2 [7]: around 40 h
Terminal elimination half-life (t1/2) [7]: around 114 h
Effective t1/2 ([7]; healthy participants and patients with myelofibrosis): ~ 40 h
Predicted increase in fedratinib exposure on coadministration of fluconazole (dual CYP2C19 and CYP3A4 inhibitor) vs fedratinib alone [8]: up to a fourfold increase
Effect of ketoconazole coadministration on fedratinib Tmax [9]: no effect on Tmax
Increase in fedratinib AUC0–t by ketoconazole [9, 17]: 3.20 fold
Increase in fedratinib Cmax by ketoconazole [9, 17]: 1.93 fold
Effect of CYP3A4 inducers rifampin and efavirenz on fedratinib exposure [10]: decrease fedratinib exposure
Proportion of patients reaching primary (≥ 35% reduction in spleen volume) and secondary (≥ 50% reduction in symptom score) endpoints vs placebo [11]: greater proportion
Tolerability of single doses [12]: generally well tolerated

Cc1nccn1CC1CCc2c(c3ccccc3n2C)C1=O (stereo not drawn) [ondansetron]
Change in AUC on coadministration with the moderate CYP3A inhibitor aprepitant [13]: no clinically significant change

N#CC[C@H](C1CCCC1)n1cc(-c2ncnc3[nH]ccc23)cn1 [ruxolitinib]
Increase in exposure on coadministration with fluconazole [14]: 234%
